According to ChEMBL document CHEMBL3886519, “Pyrazolo[1,5a]pyrimidine derivatives as IRAK4 modulators” (2016):

Assays:
[1] = biological target: T1, Interleukin-1 receptor-associated kinase 4 (Homo sapiens, UniProt Q9NWZ3); assay: (§1) In vitro IRAK-1 and IRAK-4 Assay: Purified recombinant IRAK-4 protein was incubated with 250 uM synthetic peptide([…]) in 30 ul of kinase buffer including (20 mM MOPS pH7.2, 25 mM beta glycerol phosphate, 5 mM EGTA, 1 mM sodium orthovanadate, 1 mM DTT, 50 uM ATP, 20 mM MgCl2, 10 uCi gamma-33P, 0.1% BSA) for the indicated time. For purified recombinant IRAK-1 protein kinase assay, 50 uM ATP was used. A 25 ul aliquot of the reaction mixture was transferred on to p81 phosphocellulose squares (Upstate Biotechnology, Lake Placid, N.Y.). The assay squares were washed three times with 0.75% phosphoric acid and once with acetone. Enzyme activity was measured by determining the bound radioactivity by liquid scintillation counting.
T1 sequence (Q9NWZ3 whole entry): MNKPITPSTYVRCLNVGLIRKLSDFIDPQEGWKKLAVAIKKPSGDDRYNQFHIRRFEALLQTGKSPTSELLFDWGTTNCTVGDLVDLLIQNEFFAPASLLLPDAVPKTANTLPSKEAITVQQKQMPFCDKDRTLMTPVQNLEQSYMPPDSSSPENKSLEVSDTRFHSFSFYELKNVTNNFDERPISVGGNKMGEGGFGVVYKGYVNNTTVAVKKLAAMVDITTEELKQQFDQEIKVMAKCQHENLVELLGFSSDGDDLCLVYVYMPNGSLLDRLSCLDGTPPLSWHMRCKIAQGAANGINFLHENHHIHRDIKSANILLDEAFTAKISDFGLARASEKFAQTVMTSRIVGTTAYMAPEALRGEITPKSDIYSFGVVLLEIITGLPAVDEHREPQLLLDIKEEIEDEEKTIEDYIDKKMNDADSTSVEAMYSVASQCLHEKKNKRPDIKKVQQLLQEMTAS

[2] = biological target: Tyrosine-protein kinase SYK (Homo sapiens, UniProt P43405); assay: In vitro SYK Kinase Assay: SYK activity is measured by phosphorylation of a peptide substrate (Biotin-[…]) with [gamma-33P] ATP. The enzyme reaction was conducted at 20 uM ATP with 0.05 uCi [gamma-33P]ATP (2 uCi for 40 ul assay) and 10 uM peptide substrate at final volume of 40 ul in buffer containing 50 mM Hepes, pH 7.2, 1 mM dithiothreitol, 10 mM MgCl2, 100 uM Na3VO4, 0.1% BSA and 10% DMSO. The enzyme assay was carried out with human full length SYK in the presence or absence of ten compound concentrations. SYK and compound were pre-incubated for 10 minutes. Then, the enzymatic reaction was initiated by addition of ATP and peptide substrate. The reaction mixture was incubated at room temperature for 30 minutes. At the end of incubation, the reaction was terminated by transferring 25 ul of the reaction mixture to 100 ul of 10% streptavidin slurry containing 100 mM EDTA. The reaction product was captured on the affinity resin and sequentially washed on a filtration plate (Millipore, MABVNOB50) with 2M NaCl, 2M M NaCl in 1% phosphoric acid and water to remove free radio nucleotide. Then the incorporation of 33P into peptide substrate was quantified on a microplate scintillation counter.
[3] = biological target: Interleukin-1 receptor-associated kinase 1 (Homo sapiens, UniProt P51617); assay: as §1
Interleukin-1 receptor-associated kinase 1, sequence (P51617 whole entry): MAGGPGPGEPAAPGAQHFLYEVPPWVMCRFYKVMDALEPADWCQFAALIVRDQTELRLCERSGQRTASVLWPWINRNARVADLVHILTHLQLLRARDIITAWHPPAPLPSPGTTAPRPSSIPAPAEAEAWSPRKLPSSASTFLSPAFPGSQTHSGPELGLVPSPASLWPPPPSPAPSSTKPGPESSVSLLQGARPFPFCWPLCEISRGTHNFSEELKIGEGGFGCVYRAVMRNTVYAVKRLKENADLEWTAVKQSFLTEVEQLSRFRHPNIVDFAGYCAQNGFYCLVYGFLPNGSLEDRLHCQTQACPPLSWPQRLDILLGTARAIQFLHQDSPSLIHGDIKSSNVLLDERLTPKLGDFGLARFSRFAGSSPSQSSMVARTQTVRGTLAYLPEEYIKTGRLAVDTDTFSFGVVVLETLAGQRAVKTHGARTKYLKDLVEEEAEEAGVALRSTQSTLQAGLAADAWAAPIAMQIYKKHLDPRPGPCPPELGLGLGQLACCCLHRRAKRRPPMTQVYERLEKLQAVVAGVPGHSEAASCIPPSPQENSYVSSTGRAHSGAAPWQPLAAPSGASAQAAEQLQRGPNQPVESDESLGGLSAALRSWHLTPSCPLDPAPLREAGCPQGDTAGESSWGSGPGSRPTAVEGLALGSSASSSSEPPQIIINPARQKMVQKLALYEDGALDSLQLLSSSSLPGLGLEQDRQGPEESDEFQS

Row | Structure (SMILES) | IC50 [1] [nM] | IC50 [2] [nM] | IC50 [3] [nM]
1 | COc1cc2ncccc2cc1NC(=O)c1csc2cncnc12 | 18 | 622 | 
2 | CC(O)C1CCN(c2ccc(Cl)cc2NC(=O)c2cnn3cccnc23)CC1 (stereo not given) | 5 |  | 970
3 | O=C(Nc1cc2cccnc2cc1OC1CCC(O)CC1)c1csc2cncnc12 (stereo not given) | 24 |  | 123
4 | COc1cc2nc(NCCO)ccc2cc1NC(=O)c1csc2cncnc12 | 10 |  | 200
5 | O=C(Nc1cc2cccnc2cc1N1CCCCC1)c1csc2cncnc12 | 12 |  | 
6 | O=C(Nc1cc(Cl)ccc1OC1CCC(O)CC1)c1cnn2cc(O)cnc12 (stereo not given) | 23 |  | 163
7 | O=C(Nc1cc2cccnc2cc1O[C@H]1CC[C@@H](O)CC1)c1csc2cncnc12 | 7 |  | 70
8 | COc1cc2ncccc2cc1NC(=O)c1cnn2cc(O)cnc12 | 9 |  | 200
